Measurements reported in patent US12447153B2, “HER2 mutation inhibitors” (Array BioPharma Inc., priority 2021, dated 2025).

What was measured:
[1] = target: ErbB2 WT (Homo sapiens (Human), UniProt P04626); assay: ErbB Enzyme Assay (HTRF KinEASE-TK), Assay 2; assay type: biochemical
[2] = target: EGFR (Homo sapiens (Human), UniProt P00533); assay: ErbB Enzyme Assay (HTRF KinEASE-TK), Assay 3; assay type: biochemical
[3] = target: ErbB2 with Exon 20 YVMA insertion (HER2-YVMA) (Homo sapiens (Human), UniProt P04626, INS775YVMA); assay: Cellular Phosphorylation Assay, Assay 4 (constitutive ErbB2 phosphorylation, NIH 3T3 cells); assay type: cell-based
Chain of ErbB2 with Exon 20 YVMA insertion (HER2-YVMA) (P04626 other isoform, or with tags, fused parts or gaps ins YVMA behind 775): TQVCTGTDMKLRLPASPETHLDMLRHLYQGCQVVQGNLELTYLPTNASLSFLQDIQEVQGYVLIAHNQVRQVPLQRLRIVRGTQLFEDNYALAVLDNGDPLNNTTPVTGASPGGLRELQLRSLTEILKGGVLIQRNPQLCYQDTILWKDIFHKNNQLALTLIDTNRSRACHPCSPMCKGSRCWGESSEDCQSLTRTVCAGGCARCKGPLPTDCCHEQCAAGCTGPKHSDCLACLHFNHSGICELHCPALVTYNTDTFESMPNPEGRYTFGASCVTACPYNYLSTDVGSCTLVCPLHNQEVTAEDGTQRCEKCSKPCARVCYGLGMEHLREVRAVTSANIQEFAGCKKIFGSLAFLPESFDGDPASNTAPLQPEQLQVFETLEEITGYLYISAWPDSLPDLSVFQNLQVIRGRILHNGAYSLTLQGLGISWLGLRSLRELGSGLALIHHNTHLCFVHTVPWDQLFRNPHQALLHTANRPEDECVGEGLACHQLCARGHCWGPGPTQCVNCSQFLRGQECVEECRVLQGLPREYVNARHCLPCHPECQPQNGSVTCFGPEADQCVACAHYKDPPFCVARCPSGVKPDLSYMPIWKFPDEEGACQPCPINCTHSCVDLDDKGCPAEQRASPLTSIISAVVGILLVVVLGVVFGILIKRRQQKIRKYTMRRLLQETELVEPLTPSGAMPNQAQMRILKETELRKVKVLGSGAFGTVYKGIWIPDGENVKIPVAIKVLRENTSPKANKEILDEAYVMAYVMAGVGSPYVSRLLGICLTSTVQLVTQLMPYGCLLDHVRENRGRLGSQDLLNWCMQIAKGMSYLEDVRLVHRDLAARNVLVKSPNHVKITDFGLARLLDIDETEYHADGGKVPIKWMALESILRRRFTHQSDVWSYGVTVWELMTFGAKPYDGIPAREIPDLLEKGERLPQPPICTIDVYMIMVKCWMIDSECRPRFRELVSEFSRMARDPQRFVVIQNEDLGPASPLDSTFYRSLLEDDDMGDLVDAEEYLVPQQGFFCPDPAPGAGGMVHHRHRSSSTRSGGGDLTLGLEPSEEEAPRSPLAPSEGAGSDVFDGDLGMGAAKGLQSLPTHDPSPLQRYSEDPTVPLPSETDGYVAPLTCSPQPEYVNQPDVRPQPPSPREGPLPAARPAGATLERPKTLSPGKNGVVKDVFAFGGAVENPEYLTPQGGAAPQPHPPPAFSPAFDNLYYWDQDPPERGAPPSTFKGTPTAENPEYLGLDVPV

[4] = target: EGFR wild type (EGFR WT) (Homo sapiens (Human), UniProt P00533); assay: Cellular Phosphorylation Assay, Assay 5 (EGF-stimulated EGFR phosphorylation, NIH 3T3 cells); assay type: cell-based
[5] = target: BCRP (Homo sapiens (Human), UniProt Q9UNQ0); assay: BCRP MDCKII efflux assay (Assay 7); assay type: in vitro ADME; conditions: dog; efflux ratio Papp(B-A)/Papp(A-B), BCRP MDCKII cells; read-out: Assay 7 Pe Ratio
Chain of BCRP (Q9UNQ0 whole entry): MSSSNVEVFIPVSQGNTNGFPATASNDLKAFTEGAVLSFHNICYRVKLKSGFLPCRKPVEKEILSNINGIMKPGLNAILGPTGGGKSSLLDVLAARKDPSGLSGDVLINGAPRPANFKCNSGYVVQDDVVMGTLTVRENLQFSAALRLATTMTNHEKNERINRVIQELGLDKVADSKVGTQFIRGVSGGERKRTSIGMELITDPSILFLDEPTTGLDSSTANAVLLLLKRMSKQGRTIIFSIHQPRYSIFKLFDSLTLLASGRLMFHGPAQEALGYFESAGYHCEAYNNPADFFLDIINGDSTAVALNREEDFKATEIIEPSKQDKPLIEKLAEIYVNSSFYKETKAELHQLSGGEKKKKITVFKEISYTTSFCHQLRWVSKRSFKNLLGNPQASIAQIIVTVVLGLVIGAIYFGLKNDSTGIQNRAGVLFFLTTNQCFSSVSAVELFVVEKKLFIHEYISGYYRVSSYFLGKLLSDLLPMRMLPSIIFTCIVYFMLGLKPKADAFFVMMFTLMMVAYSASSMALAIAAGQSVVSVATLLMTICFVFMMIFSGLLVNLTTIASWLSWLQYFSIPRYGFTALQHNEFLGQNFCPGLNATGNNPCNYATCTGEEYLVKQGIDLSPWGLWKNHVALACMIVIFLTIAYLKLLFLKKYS
Procedure: Assay conditions included with and without the BCRP-specific inhibitor, KO143, at a concentration of 0.3 μM to ascertain the contribution of BCRP to the efflux value of the test compound.
Final organic concentration in the assay was 1%.

[6] = target: MDR1 (P-gp) (Homo sapiens (Human), UniProt P08183); assay: in vitro; conditions: pig, LLC-PK1
Chain of MDR1 (P-gp) (P08183 whole entry): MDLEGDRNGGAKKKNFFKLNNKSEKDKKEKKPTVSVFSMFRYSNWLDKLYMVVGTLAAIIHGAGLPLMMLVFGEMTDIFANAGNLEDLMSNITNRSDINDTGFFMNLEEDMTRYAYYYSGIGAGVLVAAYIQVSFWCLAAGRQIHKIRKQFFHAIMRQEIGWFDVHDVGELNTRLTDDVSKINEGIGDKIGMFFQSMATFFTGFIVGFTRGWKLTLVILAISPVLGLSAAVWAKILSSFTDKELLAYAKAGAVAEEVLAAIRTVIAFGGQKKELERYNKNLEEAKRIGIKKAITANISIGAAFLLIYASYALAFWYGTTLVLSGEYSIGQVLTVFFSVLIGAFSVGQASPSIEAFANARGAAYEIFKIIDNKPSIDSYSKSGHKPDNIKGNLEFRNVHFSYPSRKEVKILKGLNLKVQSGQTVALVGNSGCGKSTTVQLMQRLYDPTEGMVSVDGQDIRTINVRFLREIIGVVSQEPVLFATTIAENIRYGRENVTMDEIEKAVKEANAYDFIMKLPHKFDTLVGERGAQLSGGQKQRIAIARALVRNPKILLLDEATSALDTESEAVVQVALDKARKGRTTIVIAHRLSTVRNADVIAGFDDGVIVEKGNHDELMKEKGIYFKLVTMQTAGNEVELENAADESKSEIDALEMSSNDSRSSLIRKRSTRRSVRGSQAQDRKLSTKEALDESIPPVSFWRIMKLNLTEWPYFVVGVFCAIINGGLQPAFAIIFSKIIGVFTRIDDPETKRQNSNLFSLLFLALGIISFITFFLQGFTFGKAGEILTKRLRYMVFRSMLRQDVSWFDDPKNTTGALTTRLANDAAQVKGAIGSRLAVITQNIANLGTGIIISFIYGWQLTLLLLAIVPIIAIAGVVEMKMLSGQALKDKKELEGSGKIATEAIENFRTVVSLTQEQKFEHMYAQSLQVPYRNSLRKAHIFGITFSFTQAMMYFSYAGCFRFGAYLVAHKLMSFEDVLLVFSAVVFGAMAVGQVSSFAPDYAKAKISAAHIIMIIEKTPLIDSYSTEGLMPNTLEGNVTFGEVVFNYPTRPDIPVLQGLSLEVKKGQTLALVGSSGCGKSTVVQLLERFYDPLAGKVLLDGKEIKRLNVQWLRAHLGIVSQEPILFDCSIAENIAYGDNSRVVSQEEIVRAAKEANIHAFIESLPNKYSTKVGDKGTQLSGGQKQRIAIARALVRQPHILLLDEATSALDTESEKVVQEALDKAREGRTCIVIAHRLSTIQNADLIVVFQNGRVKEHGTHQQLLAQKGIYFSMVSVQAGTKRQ

[7] = EGF-stimulated EGFR WT phosphorylation
[8] = cellular ErbB2 YVMA phosphorylation
[9] = cellular EGFR WT phosphorylation, EGF-stimulated

Chain of ErbB2 WT (P04626 23-1255): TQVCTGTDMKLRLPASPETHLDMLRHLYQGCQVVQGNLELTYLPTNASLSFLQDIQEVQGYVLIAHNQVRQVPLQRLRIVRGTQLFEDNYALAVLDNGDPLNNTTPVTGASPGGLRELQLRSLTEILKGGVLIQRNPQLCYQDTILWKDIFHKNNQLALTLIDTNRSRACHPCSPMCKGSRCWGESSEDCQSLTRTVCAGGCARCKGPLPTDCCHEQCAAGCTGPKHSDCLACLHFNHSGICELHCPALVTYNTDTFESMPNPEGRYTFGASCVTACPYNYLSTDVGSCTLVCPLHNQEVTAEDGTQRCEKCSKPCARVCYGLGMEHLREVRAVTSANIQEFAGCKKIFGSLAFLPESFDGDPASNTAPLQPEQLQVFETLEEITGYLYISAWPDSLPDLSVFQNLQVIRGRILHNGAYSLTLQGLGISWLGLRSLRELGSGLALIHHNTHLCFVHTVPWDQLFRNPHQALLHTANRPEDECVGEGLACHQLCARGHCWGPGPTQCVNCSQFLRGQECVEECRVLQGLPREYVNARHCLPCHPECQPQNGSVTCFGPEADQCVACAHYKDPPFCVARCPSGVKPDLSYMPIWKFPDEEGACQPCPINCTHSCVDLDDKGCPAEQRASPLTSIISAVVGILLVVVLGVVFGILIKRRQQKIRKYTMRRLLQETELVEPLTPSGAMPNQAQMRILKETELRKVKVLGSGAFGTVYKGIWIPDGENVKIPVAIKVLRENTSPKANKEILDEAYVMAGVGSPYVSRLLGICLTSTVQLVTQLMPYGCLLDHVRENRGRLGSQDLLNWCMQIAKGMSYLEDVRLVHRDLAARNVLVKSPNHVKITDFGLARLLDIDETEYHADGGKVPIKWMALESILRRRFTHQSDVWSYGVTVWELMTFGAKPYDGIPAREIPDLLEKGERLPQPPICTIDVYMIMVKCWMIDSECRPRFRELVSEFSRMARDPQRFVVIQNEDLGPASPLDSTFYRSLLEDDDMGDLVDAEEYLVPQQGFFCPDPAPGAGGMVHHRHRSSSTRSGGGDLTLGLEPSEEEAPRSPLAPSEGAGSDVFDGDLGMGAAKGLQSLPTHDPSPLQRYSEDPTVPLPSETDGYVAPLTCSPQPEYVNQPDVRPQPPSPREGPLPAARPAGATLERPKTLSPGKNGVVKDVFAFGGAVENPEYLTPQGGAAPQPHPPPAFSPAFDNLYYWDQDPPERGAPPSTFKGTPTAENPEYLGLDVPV

| IC50 ([1]; ErbB2 WT enzyme) [nM] | IC50 ([2]; EGFR enzyme) [nM] | IC50 ([3]; ErbB2 YVMA phosphorylation) [nM] | IC50 [4, 7] [nM] | efflux ratio at 2 h, 1 µM [5] | efflux ratio at 2 h, 1 µM [6] | IC50 ([1]; ErbB2 WT enzyme assay) [nM] | IC50 ([2]; EGFR enzyme assay) [nM] | IC50 [3, 8] [nM] | IC50 [4, 9] [nM] | Compound |
| --- | --- | --- | --- | --- | --- | --- | --- | --- | --- | --- |
| 39.9 | ≥ 10000 | 28.6 | ≥ 5000 | 1.7 | 1.7 | – | – | – | – | C=CC(=O)N1C[C@H]2C[C@H](c3ccc4ncnc(Nc5cc(C)c(Oc6ccc7c(c6)ncn7C)cc5F)c4n3)C[C@H]2C1 [Example 136, 1-((3aR,5s,6aS)-5-(4-((2-fluoro-5-methyl-4-((1-methyl-1H-benzo[d]imidazol-5-yl)oxy)phenyl)amino)pyrido[3,2-d]pyrimidin-6-yl)hexahydrocyclopenta[c]pyrrol-2(1H)-yl)prop-2-en-1-one] |
| 5.5 | 49.3 | 5.3 | 46.8 | 2.6 | 2.3 | – | – | – | – | C=CC(=O)N1CCC(Oc2nc3c(Nc4ccc(Oc5ccn6ncnc6c5)c(Cl)c4F)ncnc3cc2OC)CC1 [Example 39, 1-(4-((4-((4-([1,2,4]triazolo[1,5-a]pyridin-7-yloxy)-3-chloro-2-fluorophenyl)amino)-7-methoxypyrido[3,2-d]pyrimidin-6-yl)oxy)piperidin-1-yl)prop-2-en-1-one] |
| 17.4 | 483 | 22.3 | 942 | 3.2 | 0.6 | – | – | – | – | C=CC(=O)N1C[C@@H]2C[C@H]1C[C@H]2c1ccc2ncnc(Nc3ccc(Oc4ccn5ncnc5c4)c(C)c3F)c2n1 (racemic) [Example 199, rac-1-((1 S,4R,5R)-5-(4-((4-([1,2,4]triazolo[1,5-a]pyridin-7-yloxy)-2-fluoro-3-methylphenyl)amino)pyrido[3,2-d]pyrimidin-6-yl)-2-azabicyclo[2.2.1]heptan-2-yl)prop-2-en-1-one] |
| – | – | – | – | 2 | 0.7 | 183 | ≥ 10000 | 33.2 | ≥ 5000 | C=CC(=O)N1C[C@H]2CC[C@@H]1[C@H](c1ccc3ncnc(Nc4ccc(Oc5cnc6c(c5)ncn6C)c(C)c4F)c3n1)C2 [Example 426] |
| 48.5 | 6690 | 24.4 | 3620 | 2.4 | 1 | – | – | – | – | CC#CC(=O)N1CC[C@@H]2C[C@H]1CN2c1ccc2ncnc(Nc3ccc(Oc4ccn5ncnc5c4)c(C)c3F)c2n1 [Example 176, 1-((1 S,5R)-6-(4-((4-([1,2,4]triazolo[1,5-a]pyridin-7-yloxy)-2-fluoro-3-methylphenyl)amino)pyrido[3,2-d]pyrimidin-6-yl)-2,6-diazabicyclo[3.2.1]octan-2-yl)but-2-yn-1-one] |
| – | – | – | – | 1.9 | 1 | 464 | ≥ 10000 | 29.7 | ≥ 5000 | C=CC(=O)N1[C@H](C)CN(c2ccc3ncnc(Nc4ccc(Oc5cnc6c(c5)ncn6C)c(C)c4F)c3n2)C[C@@H]1C [Example 442] |
| – | – | – | – | 3.5 | 1.3 | 8.2 | 712 | 17.4 | 1450 | C=CC(=O)N1C[C@H](c2ccc3ncnc(Nc4ccc(Oc5ccn6ncnc6c5)c(C)c4F)c3n2)C[C@@H]1C1CC1 (racemic) [Example 302] |
| 5.9 | 410 | 15.3 | 582 | 1.4 | 6.4 | – | – | – | – | C=CC(=O)N1CCCC[C@@H](c2ccc3ncnc(Nc4ccc(Oc5ccc6c(c5)ncn6C)c(C)c4F)c3n2)C1 (racemic) [Example 145, rac-(R)-1-(3-(4-((2-fluoro-3-methyl-4-((1-methyl-1H-benzo[d]imidazol-5-yl)oxy)phenyl)amino)pyrido[3,2-d]pyrimidin-6-yl)azepan-1-yl)prop-2-en-1-one] |
| 260 | ≥ 10000 | 60.6 | ≥ 5000 | 1.5 | 2 | – | – | – | – | C=CC(=O)N1CCC(Oc2ccc3ncnc(Nc4ccc(Oc5ccc6cn(C)nc6c5)c(C)c4)c3n2)CC1 [Example 3, 1-(4-((4-((3-methyl-4-((2-methyl-2H-indazol-6-yl)oxy)phenyl)amino)pyrido[3,2-d]pyrimidin-6-yl)oxy)piperidin-1-yl)prop-2-en-1-one] |
| 65.9 | 7930 | 16.6 | ≥ 5000 | 1.4 | 1.4 | – | – | – | – | C=CC(=O)N1CCC[C@@H](c2ccc3ncnc(Nc4cc(C)c(Oc5ccc6c(c5)ncn6C)cc4F)c3n2)C1 (racemic) [Example 129, rac-(R)-1-(3-(4-((2-fluoro-5-methyl-4-((1-methyl-1H-benzo[d]imidazol-5-yl)oxy)phenyl)amino)pyrido[3,2-d]pyrimidin-6-yl)piperidin-1-yl)prop-2-en-1-one] |
| – | – | – | – | 1.1 | 1.6 | 21 | 942 | 20.1 | 494 | C=CC(=O)N1CCC(c2ccc3ncnc(Nc4ccc(Oc5ccn6ncnc6c5)c(C)c4F)c3n2)CC12CC2 (stereo not drawn) [Example 270] |
| – | – | – | – | 1.1 | 1.3 | 20 | 5070 | 18.3 | 2580 | C=CC(=O)N1CCN(c2ccc3ncnc(Nc4ccc(Oc5ccn6ncnc6c5)c(C)c4F)c3n2)C[C@H]1C(C)(C)C [Example 303] |
| 16.7 | 835 | 6.8 | 538 | 6.1 | 1.8 | – | – | – | – | C=CC(=O)N1CCN(c2ccc3ncnc(Nc4ccc(Oc5ccn6ncnc6c5)c(C)c4F)c3n2)CC1 [Example 96, 1-(4-(4-((4-([1,2,4]triazolo[1,5-a]pyridin-7-yloxy)-2-fluoro-3-methylphenyl)amino)pyrido[3,2-d]pyrimidin-6-yl)piperazin-1-yl)prop-2-en-1-one] |
| 57.5 | 3330 | 19.8 | ≥ 5000 | 5.2 | 1.4 | – | – | – | – | C=CC(=O)N1[C@H](C)CN(c2ccc3ncnc(Nc4cc(C)c(Oc5ccc6c(c5)ncn6C)cc4F)c3n2)C[C@@H]1C [Example 112, 1-((2S,6R)-4-(4-((2-fluoro-5-methyl-4-((1-methyl-1H-benzo[d]imidazol-5-yl)oxy)phenyl)amino)pyrido[3,2-d]pyrimidin-6-yl)-2,6-dimethylpiperazin-1-yl)prop-2-en-1-one] |
| – | – | – | – | 4.3 | 0.9 | 8.7 | 336 | 9.3 | 737 | C=CC(=O)N1C[C@H]2C[C@@H]1[C@H](c1ccc3ncnc(Nc4ccc(Oc5ccn6ncnc6c5)c(Cl)c4F)c3n1)C2 [Example 406] |
| 14.3 | 6540 | 22.7 | 928 | 1.8 | 1.3 | – | – | – | – | C=CC(=O)N1CCN(c2ccc3ncnc(Nc4ccc(Oc5ccn6ncnc6c5)c(C)c4F)c3n2)CC1(C)C [Example 31, 1-(4-(4-((4-([1,2,4]triazolo[1,5-a]pyridin-7-yloxy)-2-fluoro-3-methylphenyl)amino)pyrido[3,2-d]pyrimidin-6-yl)-2,2-dimethylpiperazin-1-yl)prop-2-en-1-one] |
| 237 | ≥ 10000 | 17.8 | ≥ 5000 | 2.7 | 1.6 | – | – | – | – | C=CC(=O)N1C[C@H]2C[C@@H]1CN(c1ccc3ncnc(Nc4cc(Cl)c(Oc5ccc6c(c5)ncn6C)cc4F)c3n1)C2 [Example 107, 1-((1S,5R)-3-(4-((5-chloro-2-fluoro-4-((1-methyl-1H-benzo[d]imidazol-5-yl)oxy)phenyl)amino)pyrido[3,2-d]pyrimidin-6-yl)-3,6-diazabicyclo[3.2.1]octan-6-yl)prop-2-en-1-one] |

| Compound | IC50 ([1]; ErbB2 WT enzyme) [nM] | IC50 ([2]; EGFR enzyme) [nM] | IC50 ([3]; ErbB2 YVMA phosphorylation) [nM] | IC50 [4, 7] [nM] | efflux ratio at 2 h, 1 µM [5] | efflux ratio at 2 h, 1 µM [6] | IC50 ([1]; ErbB2 WT enzyme assay) [nM] | IC50 ([2]; EGFR enzyme assay) [nM] | IC50 [3, 8] [nM] | IC50 [4, 9] [nM] |
| --- | --- | --- | --- | --- | --- | --- | --- | --- | --- | --- |
| C=CC(=O)N1[C@@H]2CC[C@H]1C[C@@H](c1ccc3ncnc(Nc4ccc(Oc5ccn6ncnc6c5)c(Cl)c4F)c3n1)C2 [Example 214, 1-((1R,3r,5S)-3-(4-((4-([1,2,4]triazolo[1,5-a]pyridin-7-yloxy)-3-chloro-2-fluorophenyl)amino)pyrido[3,2-d]pyrimidin-6-yl)-8-azabicyclo[3.2.1]octan-8-yl)prop-2-en-1-one] | 21.6 | 279 | 25 | ≥ 5000 | 3.8 | 1.4 | – | – | – | – |
| C=CC(=O)N1[C@@H]2CC[C@H]1[C@H](c1ccc3ncnc(Nc4ccc(Oc5cnc6c(c5)ncn6C)c(C)c4)c3n1)C2 [Example 408] | – | – | – | – | 2.2 | 1.1 | 32 | 498 | 23.7 | ≥ 5000 |
| CC#CC(=O)N1CC2CCC(C1)N2c1ccc2ncnc(Nc3ccc(Oc4ccn5ncnc5c4)c(C)c3F)c2n1 [Example 246, 1-(8-(4-((4-([1,2,4]triazolo[1,5-a]pyridin-7-yloxy)-2-fluoro-3-methylphenyl)amino)pyrido[3,2-d]pyrimidin-6-yl)-3,8-diazabicyclo[3.2.1]octan-3-yl)but-2-yn-1-one] | 34.8 | 1800 | 16.2 | 1300 | 1.3 | 0.5 | – | – | – | – |
